Results on nine compounds are retold here after patent US20060247305A1, “Chromen-4-one inhibitors of anti-apoptotic Bcl-2 family members and the uses thereof” (Regents of the University of Michigan, priority 2005, published 2006).

For assay [1], the target named is T1, human Bcl-xL recombinant His-tagged protein (Homo sapiens, UniProt Q07817).
T1 construct: without the C-terminus hydrophobic tail; His
The assay can be described thus: Bcl-xL fluorescence polarization-based competitive binding assay (Flu-Bak peptide). The note with it: for Ki: FP assay, 60 nM Bcl-xL, 5 nM Flu-Bak peptide, Ki calculated from IC50; for fold decrease of binding affinity to Bcl-xL: relative to the parent analogue (15d compared with 15b; 15j: removal of the big hydrophobic group).

Assay [2] deals with Bcl-2 recombinant His-fused soluble protein (Homo sapiens, UniProt P10415). The assay is described as follows: Bcl-2 fluorescence polarization-based competitive binding assay (Flu-Bid-21 peptide). The note with it: for Ki: FP assay, 0.120 μM Bcl-2, 0.010 μM Flu-Bid-21, 4 hours incubation, Ki calculated from IC50, read-out: Binding Affinity Ki (μM) Bc1-2; for fold decrease of binding affinity to Bcl-2: relative to the parent analogue (15c, 15d compared with 15b; 15j: removal of the big hydrophobic group).

Assay [3] concerns 2LMP breast cancer cells. The assay can be described thus: Cell growth inhibition, MTT, 2LMP breast cancer cells. Format: cell-based, human. As to conditions: for IC50: Homo sapiens, 120 h, 5 days incubation, MTT cell viability, read-out: Cellular Activity IC50 (μM) 2LMP. Here is the method:
(§1) To test the effect of compounds of the present invention on inhibition of cell growth in human cancer cells, the compounds were administered to two different cancer cell lines. PC-3 prostate cancer cells and 2LMP breast cancer cells were each seeded in 96-well plates with increasing concentrations of inhibitor compounds. The cells were then incubated at 37° C. with 5% CO2 for 5 days, followed by detection of cell viability with MTT. Untreated cells were used as 100% growth.

In assay [4] the test system is PC-3 prostate cancer cells. The assay is described as follows: Cell growth inhibition, MTT, PC-3 prostate cancer cells. Format: cell-based, human. The note with it: for IC50: Homo sapiens, 120 h, 5 days incubation, MTT cell viability, read-out: Cellular Activity IC50 (μM) PC3. Here is the method: as §1
Where [5] appears, read: read-out: Binding Affinity Ki (μM) Bc1-xL.

Structures are written as SMILES. Where two headings read alike, the source gives them in different places.

T1 sequence (Q07817 1-209 limits assumed): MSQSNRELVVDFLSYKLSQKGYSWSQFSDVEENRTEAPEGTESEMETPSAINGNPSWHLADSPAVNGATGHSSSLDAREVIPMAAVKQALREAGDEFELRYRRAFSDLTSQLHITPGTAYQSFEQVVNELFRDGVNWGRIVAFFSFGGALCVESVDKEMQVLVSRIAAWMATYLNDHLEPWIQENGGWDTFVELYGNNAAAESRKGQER
Sequence of Bcl-2 recombinant His-fused soluble protein (P10415 whole entry, the tested form may be a part): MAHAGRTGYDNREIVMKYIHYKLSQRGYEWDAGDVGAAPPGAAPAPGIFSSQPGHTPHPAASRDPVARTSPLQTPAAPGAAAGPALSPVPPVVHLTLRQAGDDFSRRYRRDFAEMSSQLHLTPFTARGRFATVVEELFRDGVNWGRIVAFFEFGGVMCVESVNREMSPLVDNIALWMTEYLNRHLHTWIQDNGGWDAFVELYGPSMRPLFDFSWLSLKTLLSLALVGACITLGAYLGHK

Regarding `Cc1oc2c(CC(C)C)c(O)c(O)c(O)c2c(=O)c1-c1ccc2c(C(C)C)c(O)ccc2c1` [Compound 2, 5,6,7-Trihydroxy-3-(6-hydroxy-5-isopropyl-naphthalen-2-yl)-8-isobutyl-2-methyl-chromen-4-one], the inhibitory constant (Ki) in assay [1] (setting [5]) was 1.49 µM; in assay [2], 0.088 µM. The half-maximal inhibitory concentration (IC50) in assay [3] came out at 1.54 µM; in assay [4], 1.82 µM. The “fold more potent than gossypol, cell growth inhibitory activity, 2LMP” value in assay [3] (relative to gossypol) was 3 to 4 fold. Further, in assay [4] (relative to gossypol), the “fold more potent than gossypol, cell growth inhibitory activity, PC3” value is recorded as 3 to 4 fold.

Turning to `Cc1oc2c(CC(C)C)c(O)c(O)c(O)c2c(=O)c1-c1ccc2c(C)c(O)ccc2c1` [Compound 15a, 5,6,7-Trihydroxy-3-(6-hydroxy-5-methyl-naphthalen-2-yl)-8-isobutyl-2-methyl-chromen-4-one], the inhibition constant (Ki) in assay [1] (setting [5]) is 1.78 ± 0.13 µM; in assay [2], 0.13 ± 0.01 µM. Moreover, the values for the IC50 in assay [3] and in assay [4] were 1.44 µM and 3.09 µM, respectively.

As to `Cc1oc2c(CC(C)C)c(O)c(O)c(O)c2c(=O)c1-c1ccc2cc(O)ccc2c1` [Compound 15b, 5,6,7-Trihydroxy-3-(6-hydroxy-naphthalen-2-yl)-8-isobutyl-2-methyl-chromen-4-one], the inhibitory constant (Ki) in assay [1] (setting [5]) was 1.71 ± 0.22 µM; in assay [2], 0.17 ± 0.02 µM. Further, the IC50 was 2.55 µM in assay [3] and 5.07 µM in assay [4].

In the case of `Cc1oc2c(CC(C)C)c(O)c(O)c(O)c2c(=O)c1-c1ccc2ccccc2c1` [Compound 15c, 5,6,7-Trihydroxy-8-isobutyl-2-methyl-3-naphthalen-2-yl-chromen-4-one], the Ki was 2.32 ± 0.26 µM in assay [1] (setting [5]) and 0.39 ± 0.17 µM in assay [2]. Moreover, in assay [2], the “fold decrease of binding affinity to Bcl-2” value (“fold decrease … to Bcl-2” below) is “about 2 fold”. Also, the concentration for half-maximal inhibition (IC50) came to 2.08 µM in assay [3] and 3.62 µM in assay [4].

As for `COc1c(OC)c(OC)c2c(=O)c(-c3ccc4cc(O)ccc4c3)c(C)oc2c1CC(C)C` [Compound 15d, 3-(6-Hydroxy-naphthalen-2-yl)-8-isobutyl-5,6,7-trimethoxy-2-methyl-chromen-4-one], the inhibition constant Ki was above 14 µM in assay [1] (setting [5]) and 1.24 ± 0.13 µM in assay [2]. Moreover, the “fold decrease of binding affinity to Bcl-xL” value in assay [1] was “more than 10 fold”. In assay [2], the “fold decrease … to Bcl-2” value is “more than 10 fold”. For the same compound, the IC50 is above 30 µM in assay [3] and 20.6 µM in assay [4].

In the case of `CCOc1ccc2cc(-c3c(C)oc4c(CC(C)C)c(OC)c(OC)c(OC)c4c3=O)ccc2c1` [Compound 15e, 3-(6-Ethoxy-naphthalen-2-yl)-8-isobutyl-5,6,7-trimethoxy-2-methyl-chromen-4-one], the Ki was above 14 µM in assay [1] (setting [5]) and above 12 µM in assay [2].

Regarding `Cc1oc2c(CC(C)C)c(O)c(O)c(O)c2c(=O)c1-c1ccccc1` [Compound 15f, 5,6,7-Trihydroxy-8-isobutyl-2-methyl-3-phenyl-chromen-4-one], the inhibition constant Ki in assay [1] (setting [5]) was 4.27 ± 0.84 µM; in assay [2], 0.79 ± 0.03 µM. Moreover, the IC50 amounted to 9.3 µM in assay [3] and 23.7 µM in assay [4].

On to `Cc1cc(=O)c2c(O)c(O)c(O)c(CC(C)C)c2o1` [Compound 15j, 5,6,7-Trihydroxy-8-isobutyl-2-methyl-chromen-4-one], for which the Ki in assay [1] (setting [5]) is above 14 µM; in assay [2], 4.63 ± 0.16 µM. For the same compound, in assay [1], the “fold decrease of binding affinity to Bcl-xL” value is on record as “more than 10 fold”. In assay [2], the “fold decrease … to Bcl-2” value was above 50 fold. Further, the values for the IC50 in assay [3] and in assay [4] were above 30 µM and 20.1 µM, respectively.

As to `Cc1cc2c(C(C)C)c(O)c(O)c(C=O)c2c(O)c1-c1c(C)cc2c(C(C)C)c(O)c(O)c(C=O)c2c1O` [gossypol, reference compound], the Ki in assay [1] (Binding Affinity Ki (μM) Bc1-xL) is 1.97 ± 0.39 µM. Moreover, the values for the concentration for half-maximal inhibition (IC50) in assay [3] and in assay [4] were 6 µM and 9.7 µM, respectively.
